pIC50: −log10 of the molar value.
What was measured:
PC-3 [1] = experiment: Cytotoxicity against human PC3 cells at 0.5 uM after 72 hrs in presence of 41 ug/ml eugenol by CellTiter one aqueous solution assay relative to control; assay type: functional
PC-3 [2] = experiment: Cytotoxicity against human PC3 cells after 72 hrs by CellTiter one aqueous solution assay; assay type: functional, cell-based; details: PC-3, 72 h
Mus musculus [3] = species: Mus musculus; experiment: Down-regulation of c-Myc mRNA expression in mouse relative to control; assay type: functional
Mus musculus [4] = species: Mus musculus; experiment: Down-regulation of H-ras mRNA expression in mouse relative to control; assay type: functional
HeLa [5] = experiment: Antiproliferative activity against human HeLa cells at 150 uM after 24 hrs by MTT assay relative to control; assay type: functional
HeLa [6] = experiment: Antiproliferative activity against human HeLa cells after 24 hrs by MTT assay relative to control; assay type: functional
PC-3 [7] = experiment: Cytotoxicity against human PC3 cells at 41 ug/ml after 72 hrs in presence of 0.5 uM 2ME2 by CellTiter one aqueous solution assay relative to control; assay type: functional
HeLa [8] = experiment: Growth inhibition of human HeLa cells at 10 uM to 1 mM after 24 hrs by MTT assay relative to control; assay type: functional
HeLa [9] = experiment: Antiproliferative activity against human HeLa cells at 15 mM after 24 hrs by MTT assay relative to control; assay type: functional

Structure (SMILES) | Activity (PC-3 [1]) [%] | IC50 (PC-3 [2]) [µg/mL] | Activity (Mus musculus [3]) [%] | Activity (Mus musculus [4]) [%] | pIC50 (PC-3 [2]) | Activity (HeLa [5]) [%] | Activity (HeLa [6]) [%] | Activity (PC-3 [7]) [%] | growth inhibition (GI) (HeLa [8]) [%] | Activity (HeLa [9]) [%]
COc1cc2c(cc1O)CC[C@@H]1[C@@H]2CC[C@]2(C)[C@@H](O)CC[C@@H]12 [2-METHOXYESTRADIOL] | 50 | 82 |  |  |  |  |  |  |  | 
C=CCc1ccc(O)c(OC)c1 [EUGENOL] |  |  | 40 | 28 | 6.00 | 47 | 84 | 50 | 50 | 
Nc1ccn([C@@H]2O[C@H](CO)[C@@H](O)C2(F)F)c(=O)n1 [GEMCITABINE] |  |  |  |  |  |  | 73 |  |  | 47
